Data taken from US9290427B2, “Anti-invasive compounds” (Universiteit Gent, priority 2012, dated 2016).
Values joined by “and” are separate entries in the source; they are usually repeats but may differ in a detail not shown here. Identical values can stand only once.

How the values were obtained:
BLM cells = test: Matrigel invasion assay; assay type: cell-based; conditions: for Number of invasive BLM-cells found at the basolateral side of the filter: 24 h, samples 1 and 2
From the text: An interesting method to determine the invasive capacity of cells and the anti-invasive potential of different substances is the matrigel invastion assay. Matrigel can be considered to be a basal membrane and is obtained from mice EHS sarcomas (tumors having an abundant expression of extracellular matrix proteins). The primary component of a matrigel is laminin, further also including collagen IV, heparan, sulphate proteoglycans and growth factors. It is also important that matrix degrading enzymes and inhibitors are present.
At room temperature, matrigel polymerizes into a matrix which mimicks a basal membrane of breast cells. The behavior of cells towards a matrigel highly resembles the in vivo situation and therefore this test is acknowledged to be an appropriate approach to the study migration and invasion, and the role of ECM receptors and matrix degrading enzymes in these processes.
In particular for this example, test cells were placed on a matrigel layer in serum-free medium. Subsequently, said cells were allowed to invade into the matrigel layer upon which they move through a filter, and attach to the bottom of said filter. The migration of the cells is stimulated by the presence of conditioned medium, at the other side of the filter, which act as a chemoattractant for the cells.
50 μl matrigel (+/−3 mg/ml serum-free DMEM) was applied in the apical compartment (upper chamber) of 24-well plate inserts having a pore size of 8 μm. After 1 h of polymerization (37° C.) 50.000 BLM cells (in 150 μl serum-free DMEM) were seeded and incubated with varying concentrations of compound 49 (0-100 μM). In the basolateral compartment (lower chamber), 700 μl conditioned medium, containing the same concentration of compound 49 as used in the apical compartment was applied as a chemo-attractant for the cells. The plates were incubated for 24 h at 37° C. and the matrigel and cells at the apical side were removed using wetted cotton swabs (PBSD-). The filters were washed twice on both sides with PBSD- and subsequently incubated for 10 min in ice-cold methanol to fix the cells. To quantify the number of migrated cells, the filters were incubated for 15 min with DAPI and subsequently washed 4×5 min with PBSD-. The filters were then mounted on coverslips and the number of migrated cells was determined for each concentration of compound 49 using a fluorescence microscope.

[1] = test system: MCF-7/6 mammary carcinoma cells; test: chick heart invasion assay; assay type: cell-based, human; design: unit not given here
From the text: “Anti-invasive” or “anti-invasive activity” is the ability to inhibit the invasiveness of tumor cells. Invasion by tumor cells is defined as the progressive occupation and destruction of their environment, and is the result of matrix degradation and directional cell motility. Anti-invasive activity of a compound is the ability to inhibit or block invasion, and can be assessed by counting the number of invading cells, by the depth of their invasion and/or by the amount of environmental destruction. Many assays in vitro can be applied to test for anti-invasive activity (for a complete list see Bracke et al. 2008). The three most popular ones are: • Chick heart invasion assay (Bracke et al., 2001, see details below). The cut-off value is between grade II (non-invasive) and grade III (invasive). […] Collagen gels, prepared on the bottom of plastic wells are covered with a test cell suspension, and incubated with liquid culture medium for 24 h. Invasion is evaluated with an inverted phase-contrast microscope, and is based on the percentage of cells showing extensions in the gel. […] Matrigel is a mixture of basement membrane components, and is applied as a semi-solid layer on top a filter with pores allowing the transgression of cells. The test cell suspension is seeded on top of the gel, and incubated for 1 day in a two-compartment chamber system. Invasion is then evaluated via the percentage of cells that are attached to the lower side of the filter.
In the chick heart invasion assay cancer cells are confronted with a fragment of normal tissue, so as not to neglect the contribution of the host tissue in the micro-ecosystem that governs tumor behavior. As such, precultured heart tissue fragments (PHFs), dissected from 9-day-old chicken embryos, may be confronted with aggregates of human invasive MCF-7/6 mammary carcinoma cells in the presence of a certain concentration of a test compound. After eight days, the interaction between the cancer cells and the PHF is evaluated histologically and classified along a 5-grades subjective scale (Bracke et al., 2001). Grades III and IV are typical for invasion, while grades 0, I and II correspond to absence of invasion. Compounds that inhibit invasion of confronting cancer cells i.e. from III/IV to 0/I/II, are determined as anti-invasive. Possible alternative assays generally known in the art are the type I collagen invasion assay, wound healing assay and the matrigel invasion assay.
“Anti-invasive” refers to the ability to inhibit invasion of the tumor or cancer cell into surrounding tissue (within or outside the organ of origin). […] This screening method confronts cancer cells with a fragment of normal tissue, so as not to neglect the contribution of the host tissue in the micro-ecosystem that governs tumor behavior. The interaction between the cancer cells and the normal tissue is evaluated histologically and classified along a 5-grades subjective scale. Grades III and IV are typical for invasion, while grades 0, I and II correspond to absence of invasion. Compounds that inhibit invasion of confronting cancer cells i.e. from III/IV to 0/I/II, are determined as anti-invasive. Possible alternative assays generally known in the art are the type I collagen invasion assay and the Matrigel invasion assay.
The potency of these molecules had been evaluated by means of the chick heart invasion assay, as described herein before.

COc1cc(C(=O)/C=C/c2ccc(F)cc2)cc(OC)c1OC [Compound 49, (2E)-3-(4-Fluorophenyl)-1-(3,4,5-trimethoxyphenyl)propenone]
reduction of the number of invasive cells (BLM cells; 0.1 μM): 80%
reduction of the number of invasive cells (BLM cells; 1 μM): 67%
Number of invasive BLM-cells found at the basolateral side of the filter (BLM cells; 1 μM): 282 and 160
reduction of the number of invasive cells (BLM cells; 10 μM): 93%
Number of invasive BLM-cells found at the basolateral side of the filter (BLM cells; 10 μM): 57 and 33
reduction of the number of invasive cells (BLM cells; 100 μM): 98%
Actual in vitro activity class ([1]; compounds 37-51, Table 11): −2 (about 0.01)
Actual class ([1]; training set compounds 37-51, class = log cmin, lowest concentration with invasion grade I or II): −2 (about 0.01)
